Consider three molecules from patent US6339045B1, “N-(unsubstituted or substituted)-4-substituted-6-(unsubstituted or substituted)phenoxy-2-pyridinecarboxamides or thiocarboxamides, processes for producing the same, and herbicides” (Kureha Kagaku Kogyo Kabushiki Kaisha, priority 1995, dated 2002).

Assay in all cases: Herbicidal effect by foliage and soil treatment
Assay type in all cases: in vivo
What all share (conditions): 10 g ai/10a, evaluated after 14 days

Assay [1] deals with common blackjack (Bidens pilosa). A digest of the protocol:
(§1)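 Potted seedlings at cotyledon-to-bifoliate stage were sprayed with compound in Tween 20/water at a predetermined rate and grown in a greenhouse at 19 to 25° C. Growth was rated against untreated plants after 14 days.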

In assay [2] the test system is ivyleafspeedwell (Veronica hederaefolia). In outline:
as §1

Assay [3] deals with common chickweed (Stellaria media). In outline: as §1
Assay [4] has as its system velvetleaf (Abutilon theophrasti). In outline:
as §1

Assay [5] deals with sicklepod (Cassia obtusifolia). A digest of the protocol: as §1
In assay [6] the test system is field bindweed (Convolvulus arvensis). In outline: as §1
For assay [7], the system named is wild chamomile (Matricaria chamomilla). A digest of the protocol: as §1
In assay [8] the test system is black nightshade (Solanum nigrum). In outline: as §1
For assay [9], the system named is cleavers (Galium aparine). A digest of the protocol: as §1
The subject of assay [10] is kediock (Sinapis arvensis). A digest of the protocol: as §1
In assay [11] the test system is redroot pigweed (Amaranthus retroflexus). A digest of the protocol:
as §1

With `COc1cc(Oc2cccc(C(F)(F)F)c2)nc(C(=O)NCCF)c1` [Compound I-74], in assay [1], the “herbicidal activity rating, BP (Bidens pilosa)” value (shortened to “herbicidal activity rating, BP”) was 5 (percentage of weeds killed was not less than 80%). The “herbicidal activity rating, VH (Veronica hederaefolia)” value (“herbicidal activity rating, VH” below) in assay [2] is given as 5 (percentage of weeds killed was not less than 80%). The “herbicidal activity rating, SM (Stellaria media)” value (from here on “herbicidal activity rating, SM”) in assay [3] is recorded as 5 (percentage of weeds killed was not less than 80%). In addition, the “herbicidal activity rating, AT (Abutilon theophrasti)” value in assay [4] is on record as 5 (percentage of weeds killed was not less than 80%). The “herbicidal activity rating, CO (Cassia obtusifolia)” value (shortened to “herbicidal activity rating, CO”) in [5] was 5 (percentage of weeds killed was not less than 80%). For the same molecule, the “herbicidal activity rating, CA (Convolvulus arvensis)” value (from here on “herbicidal activity rating, CA”) in assay [6] is listed as 5 (percentage of weeds killed was not less than 80%). The “herbicidal activity rating, MC (Matricaria chamomilla)” value (“herbicidal activity rating, MC” for short) in [7] is 5 (percentage of weeds killed was not less than 80%). Further, in [8], the “herbicidal activity rating, SN (Solanum nigrum)” value (shortened to “herbicidal activity rating, SN”) is recorded as 5 (percentage of weeds killed was not less than 80%). Also, in assay [9], the “herbicidal activity rating, GA (Galium aparine)” value (from here on “herbicidal activity rating, GA”) is listed as 5 (percentage of weeds killed was not less than 80%). Moreover, the “herbicidal activity rating, SA (Sinapis arvensis)” value (“herbicidal activity rating, SA” for short) in assay [10] is 5 (percentage of weeds killed was not less than 80%). Besides, in assay [11], the “herbicidal activity rating, AR (Amaranthus retroflexus)” value (“herbicidal activity rating, AR” for short) was 5 (percentage of weeds killed was not less than 80%).

`COCCCNC(=O)c1cc(OC)cc(Oc2cccc(C(F)(F)F)c2)n1` [Compound I-75]: the “herbicidal activity rating, BP” value in assay [1] was 3 (percentage of weeds killed was not less than 40% and less than 60%). Also, the “herbicidal activity rating, VH” value in assay [2] is on record as 5 (percentage of weeds killed was not less than 80%). The “herbicidal activity rating, SM” value in [3] is on record as 5 (percentage of weeds killed was not less than 80%). For the same molecule, the “herbicidal activity rating, AT (Abutilon theophrasti)” value in assay [4] is 3 (percentage of weeds killed was not less than 40% and less than 60%). Further, the “herbicidal activity rating, CO” value in assay [5] is 5 (percentage of weeds killed was not less than 80%). Also, in assay [6], the “herbicidal activity rating, CA” value was 4 (percentage of weeds killed was not less than 60% and less than 80%). The “herbicidal activity rating, MC” value in [7] was 4 (percentage of weeds killed was not less than 60% and less than 80%). The “herbicidal activity rating, SN” value in assay [8] is recorded as 5 (percentage of weeds killed was not less than 80%). Further, the “herbicidal activity rating, GA” value in assay [9] is 5 (percentage of weeds killed was not less than 80%). Also, the “herbicidal activity rating, SA” value in assay [10] was 5 (percentage of weeds killed was not less than 80%). Further, the “herbicidal activity rating, AR” value in assay [11] is 5 (percentage of weeds killed was not less than 80%).

As for `COc1cc(Oc2cccc(C(F)(F)F)c2)nc(C(=O)NCCCSC)c1` [Compound I-76], the “herbicidal activity rating, BP” value in assay [1] was 4 (percentage of weeds killed was not less than 60% and less than 80%). The “herbicidal activity rating, VH” value in assay [2] is listed as 5 (percentage of weeds killed was not less than 80%). For the same molecule, the “herbicidal activity rating, SM” value in [3] was 4 (percentage of weeds killed was not less than 60% and less than 80%). In addition, the “herbicidal activity rating, AT (Abutilon theophrasti)” value in [4] is 3 (percentage of weeds killed was not less than 40% and less than 60%). Besides, the “herbicidal activity rating, CO” value in assay [5] is given as 5 (percentage of weeds killed was not less than 80%). In assay [6], the “herbicidal activity rating, CA” value was 3 (percentage of weeds killed was not less than 40% and less than 60%). The “herbicidal activity rating, MC” value in assay [7] is recorded as 5 (percentage of weeds killed was not less than 80%). Further, the “herbicidal activity rating, SN” value in assay [8] was 5 (percentage of weeds killed was not less than 80%). In addition, the “herbicidal activity rating, GA” value in assay [9] is given as 5 (percentage of weeds killed was not less than 80%). The “herbicidal activity rating, SA” value in [10] is given as 5 (percentage of weeds killed was not less than 80%). Also, in [11], the “herbicidal activity rating, AR” value was 5 (percentage of weeds killed was not less than 80%).
